Measured values from patent publication US20140227335A1 (priority 2012, published 2014).
Where two headings read alike, the source gives them in different places.

Columns and labels:
HIV-1 93BR020 = experiment: HIV infectivity assay in TZM-bl cells; assay type: cell-based; conditions: 93BR020 (clade F, X4); for IC50: Human immunodeficiency virus 1, TZM-bl
HIV-1 92UG024 = experiment: HIV infectivity assay in TZM-bl cells; assay type: cell-based; conditions: 92UG024 (clade D, X4); for IC50: Human immunodeficiency virus 1, TZM-bl
HIV-1 92HT599 = experiment: Anti-HIV efficacy in fresh human PBMC (reverse transcriptase activity); assay type: cell-based; conditions: Human immunodeficiency virus 1, PBMC, 168 h; 92HT599 (clade B, X4); PBMCs, MOI = 0.1, 7 days
HIV-1 93IN017 = experiment: HIV infectivity assay in TZM-bl cells; assay type: cell-based; conditions: 93IN017 (clade C, X4); for IC50: Human immunodeficiency virus 1, TZM-bl
HCVcc [1] = test system: HCVcc; parameters: species or system HCV
HIV-1 92UG029 = experiment: HIV infectivity assay in TZM-bl cells; assay type: cell-based; conditions: 92UG029 (clade A, X4); for IC50: Human immunodeficiency virus 1, TZM-bl
Jc1 HCVcc = experiment: microbe, parasite or virus in culture; assay type: cell-based, HCV; conditions: Hepatitis C virus, Huh7.5, read-out: IC50, inactivation of cell-free HCVcc
HIV-1 93TH053 = experiment: HIV infectivity assay in TZM-bl cells; assay type: cell-based; conditions: 93TH053 (clade E, X4); for IC50: Human immunodeficiency virus 1, TZM-bl
HIV-1 92UG005 = experiment: HIV infectivity assay in TZM-bl cells; assay type: cell-based; conditions: 92UG005 (clade D, R5); for IC50: Human immunodeficiency virus 1, TZM-bl
HIV-1 92RW021 = experiment: HIV infectivity assay in TZM-bl cells; assay type: cell-based; conditions: 92RW021 (clade A, R5); for IC50: Human immunodeficiency virus 1, TZM-bl
HIV-20DC310342 = experiment: HIV-2 infectivity assay in TZM-bl cells; assay type: cell-based; conditions: Human immunodeficiency virus 2, TZM-bl
HIV-1 92TH026 = experiment: HIV infectivity assay in TZM-bl cells; assay type: cell-based; conditions: 92TH026 (clade B, R5); for IC50: Human immunodeficiency virus 1, TZM-bl
HIV-1 92TH006 = experiment: HIV infectivity assay in TZM-bl cells; assay type: cell-based; conditions: 92TH006 (clade E, R5); for IC50: Human immunodeficiency virus 1, TZM-bl
HIV-1 98IN022 = experiment: Anti-HIV efficacy in fresh human PBMC (reverse transcriptase activity); assay type: cell-based; conditions: Human immunodeficiency virus 1, PBMC, 168 h; 98IN022 (clade C, R5); PBMCs, MOI = 0.1, 7 days
HIV-1 92UG001 = experiment: as above; assay type: cell-based; conditions: Human immunodeficiency virus 1, PBMC, 168 h; 92UG001 (clade D, X4/R5); PBMCs, MOI = 0.1, 7 days
HCVcc [2] = assay type: cell-based, HCV
HIV-1 (X4 NL4.3) = experiment: HIV-1 sedimentation assay; conditions: 10 μM PD, 30 min, 37° C.
HIV-1 clinical isolates = experiment: Anti-HIV efficacy in fresh human PBMC (all isolates, summary); assay type: cell-based; conditions: Human immunodeficiency virus 1, PBMC; eight HIV-1 clinical isolates in PBMCs
SIVsyk1.2 = experiment: SIV infectivity assay in TZM-bl cells; assay type: cell-based; conditions: Simian immunodeficiency virus, first value cell of the line (cells shifted; presumably DMEM)
HIV-1 Jv1083 = experiment: HIV infectivity assay in TZM-bl cells; assay type: cell-based; conditions: Jv1083 (clade G, R5); for IC50: Human immunodeficiency virus 1, TZM-bl
[3] = Cytotoxicity on human cell lines (Cell Titer-Glo); assay type: cell-based

What does the source list for `N=C1Sc2ccccc2C2=NCCCN12` [PD, PD 404,182]?
IC90 (HIV-1 93BR020; PD in DMEM + 10% FBS): 6.9 ± 0.4 µM; IC90 (HIV-1 93BR020; PD in cervical fluids): 7.5 ± 0.4 µM; IC90 (HIV-1 93BR020; PD in seminal plasma): 7.19 ± 0.62 µM; IC50 (HIV-1 93BR020; PD in DMEM + 10% FBS): 1.4 µM; IC50 (HIV-1 93BR020; PD in cervical fluids): 1.9 µM; IC50 (HIV-1 93BR020; PD in seminal plasma): 1.61 µM; IC50 (DMEM; IC90 per footnote) (HIV-1 92UG024; PD in DMEM + 10% FBS): 1.4 ± 0.2 µM; IC50 (Cervical Fluid; IC90 per footnote) (HIV-1 92UG024; PD in cervical fluids): 1.8 ± 0.2 µM; IC50 (Seminal Plasma; IC90 per footnote) (HIV-1 92UG024; PD in seminal plasma): 1.58 ± 0.2 µM; IC50 (HIV-1 92UG024; PD in DMEM + 10% FBS): 3.33 µM; IC50 (HIV-1 92UG024; PD in cervical fluids): 0.55 µM; IC50 (HIV-1 92UG024; PD in seminal plasma): 0.42 µM; stability in acidic buffer (VSV-Gpp; pH 4): highly stable; activity loss (VSV-Gpp; pH 8): no activity loss; antiviral activity lost (VSV-Gpp; pH 8): ~20%; activity loss (VSV-Gpp; pH 10): ~20%; antiviral activity lost (VSV-Gpp; pH 10): ~50%; IC50 (HIV-1 92HT599): 0.55 µM; IC90 (HIV-1 92HT599): 1.92 µM; IC50 (DMEM; IC90 per footnote) (HIV-1 93IN017; PD in DMEM + 10% FBS): 1.9 ± 0.2 µM; IC50 (Cervical Fluid; IC90 per footnote) (HIV-1 93IN017; PD in cervical fluids): 2.4 ± 0.2 µM; IC50 (Seminal Plasma; IC90 per footnote) (HIV-1 93IN017; PD in seminal plasma): 2.09 ± 0.19 µM; IC50 (HIV-1 93IN017; PD in DMEM + 10% FBS): 0.4 µM; IC50 (HIV-1 93IN017; PD in cervical fluids): 0.7 µM; IC50 (HIV-1 93IN017; PD in seminal plasma): 0.45 µM; HCVcc virion lysis (HCVcc [1]): 27%; IC90 (HIV-1 92UG029; PD in DMEM + 10% FBS): 4.4 ± 0.2 µM; IC90 (HIV-1 92UG029; PD in cervical fluids): 5.3 ± 0.3 µM; IC90 (HIV-1 92UG029; PD in seminal plasma): 4.71 ± 0.26 µM; IC50 (HIV-1 92UG029; PD in DMEM + 10% FBS): 1.18 µM; IC50 (HIV-1 92UG029; PD in cervical fluids): 1.47 µM; IC50 (HIV-1 92UG029; PD in seminal plasma): 1.33 µM; IC50 (Jc1 HCVcc): 11 µM; IC90 (HIV-1 93TH053; PD in DMEM + 10% FBS): 5.3 ± 0.3 µM; IC90 (HIV-1 93TH053; PD in cervical fluids): 6.4 ± 0.4 µM; IC90 (HIV-1 93TH053; PD in seminal plasma): 6.65 ± 0.48 µM; IC50 (HIV-1 93TH053; PD in DMEM + 10% FBS): 1.4 µM; IC50 (HIV-1 93TH053; PD in cervical fluids): 1.8 µM; IC50 (HIV-1 93TH053; PD in seminal plasma): 1.67 µM; IC50 (DMEM; IC90 per footnote) (HIV-1 92UG005; PD in DMEM + 10% FBS): 5.3 ± 0.4 µM; IC50 (Cervical Fluid; IC90 per footnote) (HIV-1 92UG005; PD in cervical fluids): 5.7 ± 0.3 µM; IC50 (Seminal Plasma; IC90 per footnote) (HIV-1 92UG005; PD in seminal plasma): 5.57 ± 0.44 µM; IC50 (HIV-1 92UG005; PD in DMEM + 10% FBS): 1.26 µM; IC50 (HIV-1 92UG005; PD in cervical fluids): 1.39 µM; IC50 (HIV-1 92UG005; PD in seminal plasma): 1.32 µM; IC90 (HIV-1 92RW021; PD in DMEM + 10% FBS): 3.8 ± 0.3 µM; IC90 (HIV-1 92RW021; PD in cervical fluids): 4.4 ± 0.2 µM; IC90 (HIV-1 92RW021; PD in seminal plasma): 4.62 ± 0.32 µM; IC50 (HIV-1 92RW021; PD in DMEM + 10% FBS): 0.43 µM; IC50 (HIV-1 92RW021; PD in cervical fluids): 0.67 µM; IC50 (HIV-1 92RW021; PD in seminal plasma): 0.58 µM; IC50 (HIV-20DC310342): 1.8 µM; IC90 (HIV-1 92TH026; PD in DMEM + 10% FBS): 2.8 ± 0.2 µM; IC90 (HIV-1 92TH026; PD in cervical fluids): 3.3 ± 0.1 µM; IC90 (HIV-1 92TH026; PD in seminal plasma): 2.95 ± 0.16 µM; IC50 (HIV-1 92TH026; PD in DMEM + 10% FBS): 0.35 µM; IC50 (HIV-1 92TH026; PD in cervical fluids): 0.61 µM; IC50 (HIV-1 92TH026; PD in seminal plasma): 0.43 µM; IC50 (DMEM; IC90 per footnote) (HIV-1 92TH006; PD in DMEM + 10% FBS): 6.6 ± 0.4 µM; IC50 (Cervical Fluid; IC90 per footnote) (HIV-1 92TH006; PD in cervical fluids): 7.6 ± 0.6 µM; IC50 (Seminal Plasma; IC90 per footnote) (HIV-1 92TH006; PD in seminal plasma): 6.73 ± 0.51 µM; IC50 (HIV-1 92TH006; PD in DMEM + 10% FBS): 1.8 µM; IC50 (HIV-1 92TH006; PD in cervical fluids): 2.3 µM; IC50 (HIV-1 92TH006; PD in seminal plasma): 1.96 µM; IC50 (HIV-1 98IN022): 0.4 µM; IC90 (HIV-1 98IN022): 1.48 µM; IC50 (HIV-1 92UG001): 1.11 µM; IC90 (HIV-1 92UG001): 1.89 µM; inhibition of HCVcc infectivity (HCVcc [2]): > 10 fold; sedimentation of HIV capsid and RT in sucrose gradient (HIV-1 (X4 NL4.3)): viral capsid and RT relocate to the top of the gradient; IC50 (HIV-1 clinical isolates): 0.55 µM; IC50 (SIVsyk1.2): 1.9 µM; IC50 (HIV-1 Jv1083; PD in DMEM + 10% FBS): 1.1 µM; IC50 (HIV-1 Jv1083; PD in cervical fluids): 1.5 µM; IC50 (HIV-1 Jv1083; PD in seminal plasma): 1.27 µM; IC90 (HIV-1 Jv1083; PD in DMEM + 10% FBS): 3.9 ± 0.3 µM; IC90 (HIV-1 Jv1083; PD in cervical fluids): 4.7 ± 0.1 µM; IC90 (HIV-1 Jv1083; PD in seminal plasma): 4.22 ± 0.39 µM; CC50 ([3]; HepG2, HCT-8, Huh-7, Huh-7.5, TZM, PC3 and 293T cells, seven different human cell lines): > 300 µM; CC50 ([3]; human, TZM-bl (HeLa) cervical cancer cells): > 300 µM
